We go through 8 molecules from paper PMC12412615, “Tailored SirReal-type inhibitors enhance SIRT2 inhibition through ligand stabilization and disruption of NAD^+ co-factor binding” (RSC Medicinal Chemistry, 2025).

Common to all, as to assay type: biochemical
One assay addresses T1, human SIRT1 (Homo sapiens, UniProt Q96EB6).
T1 construct: purchased Reaction Biology Corporation (Malvern, USA), contract assay
T1 sequence (Q96EB6 1-747): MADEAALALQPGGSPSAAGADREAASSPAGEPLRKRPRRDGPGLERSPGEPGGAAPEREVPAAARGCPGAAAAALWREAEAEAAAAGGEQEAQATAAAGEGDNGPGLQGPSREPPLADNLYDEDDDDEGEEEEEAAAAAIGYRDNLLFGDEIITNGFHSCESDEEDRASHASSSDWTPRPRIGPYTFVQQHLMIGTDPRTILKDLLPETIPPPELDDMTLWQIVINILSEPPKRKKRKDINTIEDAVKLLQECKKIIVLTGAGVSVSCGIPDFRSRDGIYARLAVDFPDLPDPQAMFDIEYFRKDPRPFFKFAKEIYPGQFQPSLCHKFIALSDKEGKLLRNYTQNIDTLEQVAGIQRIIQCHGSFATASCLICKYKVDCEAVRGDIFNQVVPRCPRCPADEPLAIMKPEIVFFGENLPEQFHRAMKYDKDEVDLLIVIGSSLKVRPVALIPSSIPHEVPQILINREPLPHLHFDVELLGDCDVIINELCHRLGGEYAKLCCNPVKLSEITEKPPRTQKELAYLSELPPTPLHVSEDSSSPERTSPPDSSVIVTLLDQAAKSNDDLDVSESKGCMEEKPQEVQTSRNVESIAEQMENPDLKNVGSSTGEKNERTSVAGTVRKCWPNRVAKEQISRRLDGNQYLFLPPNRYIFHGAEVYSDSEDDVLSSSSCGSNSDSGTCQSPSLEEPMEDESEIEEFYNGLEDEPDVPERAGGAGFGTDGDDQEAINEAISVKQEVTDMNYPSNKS
In words: Fluorescence-based sirtuin subtype selectivity assay, SIRT1, single dose 50 μM. The settings on record: 50 μM compound; mean, n = 2. On the procedure: (§1) IC50 values against SIRT2 are given as mean with standard deviations (n = 3). Inhibition percentages at 50 μM for SIRT1, 3 and 5 are given as mean without standard deviations (n = 2)
(§2) The determination of subtype selectivity against SIRT1, 3 and 5 was performed by measuring the residual enzyme activity after treatment with the corresponding inhibitor at a fixed concentration of 50 μM and subsequent calculation of the percentage inhibition.
(§3) The determination of inhibitory activity on the corresponding sirtuin enzymes was carried out based on a fluorescence-based assay commissioned by Reaction Biology Corporation (Malvern, USA) following an internal experimental protocol. Test substances were prepared in DMSO, delivered into the respective enzyme mixture (prepared with reaction buffer: Tris-HCl, pH = 8) and incubated for 10 minutes at 30 °C. Subsequently the substrate mixture (NAD^+ and a 7-amino-4-methylcoumarin-based fluorogenic peptide substrate) was added to initiate the deacetylation reaction. After 2 hours incubation at 30 °C, 2 mM nicotinamide (universal sirtuin inhibitor, to stop the reaction) and protease-based developer (to generate fluorescence by the cleavage of 7-amino-4-methylcoumarin) was added. At 30 °C 1 hour later, the respective fluorescence was measured (extinction/emission = 360 nm/460 nm). The inhibitory effect of the test compounds is indirectly proportional to the amount of converted fluorescent substrate standardized as 100% activity of the control without inhibitor. The test substances were tested in 10-dose IC50 triplicate mode, with 3-fold serial dilution starting at 50 μM final reaction concentration and if necessary, starting at 100 μM. For each serially diluted replicate of the triplicate, an IC50 value was determined by sigmoidal curve fitting, resulting in three IC50 values, from which the mean and corresponding standard deviation were subsequently calculated. Data processing was performed based on Prism 8.0.2 software (GraphPad Software, Boston, USA). Subtype selectivity on SIRT1, SIRT3 and SIRT5 was evaluated in a single dose duplicate mode at 50 μM final test compound concentration according to previous outlined internal protocol of Reaction Biology Corporation by determining the enzyme activity of the respective sirtuins in % (no inhibitor control as 100% activity).

The target of a further assay is T2, human SIRT5 (Homo sapiens, UniProt Q9NXA8).
T2 construct: purchased Reaction Biology Corporation (Malvern, USA), contract assay
T2 sequence (Q9NXA8 37-310): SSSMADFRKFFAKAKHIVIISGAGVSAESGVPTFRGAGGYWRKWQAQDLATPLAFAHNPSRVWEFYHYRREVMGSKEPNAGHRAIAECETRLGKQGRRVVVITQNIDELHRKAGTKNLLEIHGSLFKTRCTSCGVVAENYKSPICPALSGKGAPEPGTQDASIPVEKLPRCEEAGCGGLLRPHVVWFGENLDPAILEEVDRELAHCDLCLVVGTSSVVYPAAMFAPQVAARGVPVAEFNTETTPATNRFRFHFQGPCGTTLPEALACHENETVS
In words: Fluorescence-based sirtuin subtype selectivity assay, SIRT5, single dose 50 μM. To be noted: 50 μM compound; mean, n = 2. As to the method:
as §1, §2, §3

A further assay deals with T3, SIRT2 (Homo sapiens, UniProt Q8IXJ6).
T3 sequence (Q8IXJ6 1-389): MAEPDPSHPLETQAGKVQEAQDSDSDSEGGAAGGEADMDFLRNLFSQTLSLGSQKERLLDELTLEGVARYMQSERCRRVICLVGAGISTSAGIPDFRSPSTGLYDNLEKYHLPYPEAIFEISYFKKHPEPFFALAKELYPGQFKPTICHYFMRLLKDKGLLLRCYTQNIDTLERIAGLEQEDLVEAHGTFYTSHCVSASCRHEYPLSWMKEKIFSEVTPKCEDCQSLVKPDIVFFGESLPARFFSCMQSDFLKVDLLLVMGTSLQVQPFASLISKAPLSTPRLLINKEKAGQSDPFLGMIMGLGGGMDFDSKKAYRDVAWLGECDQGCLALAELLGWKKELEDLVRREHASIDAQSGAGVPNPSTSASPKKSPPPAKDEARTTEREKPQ
In words: Fluorescence-based SIRT2 deacetylation inhibition assay (Reaction Biology Corporation). To be noted: fluorogenic peptide of p53 residues 379–382 (RHKK(Ac)-Fl); mean with standard deviation, n = 3. On the set-up: purchased Reaction Biology Corporation (Malvern, USA), contract assay. As to the method:
The determination of SIRT2 inhibitory activity was performed by Reaction Biology Corporation (Malvern, USA) with a fluorescence-based assay utilizing the fluorogenic peptide of p53 residues 379–382 (RHKK(Ac)-Fl). […]. […] […]. On the contrary, we observed a significant increase in potency by the introduction of halogens at the R^2 position (compounds 29–31), highlighting the importance of the position of the functional group modifications. […]. […] Additional factors such as the atomic radius and thus steric requirements of these halogens may also play a significant role in the increase in potency, where the smaller chlorine atom may experience less steric effects upon binding at the active site compared to the larger bromine and iodine atoms. […]. […] IC50 values against SIRT2 are given as mean with standard deviations (n = 3). Inhibition percentages at 50 μM for SIRT1, 3 and 5 are given as mean without standard deviations (n = 2)
as §3

A further assay deals with T4, human SIRT3 (Homo sapiens, UniProt Q9NTG7).
T4 construct: purchased Reaction Biology Corporation (Malvern, USA), contract assay
T4 sequence (Q9NTG7 1-399): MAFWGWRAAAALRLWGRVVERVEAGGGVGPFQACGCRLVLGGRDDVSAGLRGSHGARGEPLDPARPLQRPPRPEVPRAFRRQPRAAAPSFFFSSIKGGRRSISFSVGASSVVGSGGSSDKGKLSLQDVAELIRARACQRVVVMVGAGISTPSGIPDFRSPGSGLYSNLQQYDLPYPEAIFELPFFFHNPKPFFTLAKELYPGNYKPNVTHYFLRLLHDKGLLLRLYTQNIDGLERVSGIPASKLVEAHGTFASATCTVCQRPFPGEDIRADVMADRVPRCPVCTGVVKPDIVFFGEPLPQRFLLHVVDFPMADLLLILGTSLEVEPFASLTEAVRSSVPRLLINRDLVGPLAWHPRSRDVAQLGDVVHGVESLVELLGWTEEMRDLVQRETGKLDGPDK
In words: Fluorescence-based sirtuin subtype selectivity assay, SIRT3, single dose 50 μM. To be noted: 50 μM compound; mean, n = 2. As to the method:
as §1, §2, §3

As a reminder, the inhibition is the relative decrease from the control value, in per cent. What is called IC50 is the concentration at which inhibition is half-maximal. A high value points to lower potency.

With `Cc1cc(C)nc(SCC(=O)Nc2cccc(COc3ccc(NC(=O)c4cnn(C)c4)cc3Br)c2)n1` [Compound 11, N-(3-Bromo-4-((3-(2-((4,6-dimethylpyrimidin-2-yl)thio)acetamido)benzyl)oxy)phenyl)-1-methyl-1H-pyrazole-4-carboxamide], the “Inhibition of SIRT1 in %@50 μM” value at human SIRT1 is “n.i”. Moreover, the inhibition at 50 µM at human SIRT5 was 13%; at human SIRT3 it was 24%. The molecule further yielded an IC50 against SIRT2 of 81 ± 10 nM.
For the molecule `Cc1cc(C)nc(SCC(=O)Nc2cccc(COc3ccc(NC(=O)c4cnn(C)c4)cc3C=O)c2)n1` [Compound 12, N-(4-((3-(2-((4,6-Dimethylpyrimidin-2-yl)thio)acetamido)benzyl)oxy)-3-formylphenyl)-1-methyl-1H-pyrazole-4-carboxamide], the inhibition at 50 µM at human SIRT1 is 2%; on human SIRT5, 16%; on human SIRT3, 24%. Also, the midpoint of inhibition against SIRT2, the IC50, lay at 147 ± 13 nM.
As to `Cc1cc(C)nc(SCC(=O)Nc2cccc(COc3ccc(NC(=O)c4cnn(C)c4)cc3B(O)O)c2)n1` [Compound 13, (2-((3-(2-((4,6-Dimethylpyrimidin-2-yl)thio)acetamido)benzyl)oxy)-5-(1-methyl-1H-pyrazole-4-carboxamido)phenyl)boronic acid], the inhibition at 50 µM at human SIRT1 amounted to 29%; on human SIRT5, 10%; on human SIRT3, 5%. At SIRT2, this molecule showed an IC50 of 294 ± 17 nM.
The corresponding values for `Cc1cc(C)nc(SCC(=O)Nc2cccc(COc3ccc(NC(=O)c4cnn(C)c4)cc3C#N)c2)n1` [Compound 14, N-(3-Cyano-4-((3-(2-((4,6-dimethylpyrimidin-2-yl)thio)acetamido)benzyl)oxy)phenyl)-1-methyl-1H-pyrazole-4-carboxamide] are 6%, 2%, 35% and 125 ± 18 nM.
With `Cc1cc(C)nc(SCC(=O)Nc2cccc(COc3ccc(NC(=O)c4cnn(C)c4)c(Br)c3)c2)n1` [Compound 30, N-(2-Bromo-4-((3-(2-((4,6-dimethylpyrimidin-2-yl)thio)acetamido)benzyl)oxy)phenyl)-1-methyl-1H-pyrazole-4-carboxamide], the inhibition at 50 µM worked out at 4% at human SIRT1, 1% at human SIRT5 and 43% on human SIRT3. For the same molecule, on SIRT2, the IC50 came to 54 ± 7 nM.
The corresponding values for `Cc1cc(C)nc(SCC(=O)Nc2cccc(COc3ccc(NC(=O)c4cnn(C)c4)c(I)c3)c2)n1` [Compound 31, N-(4-((3-(2-((4,6-Dimethylpyrimidin-2-yl)thio)acetamido)benzyl)oxy)-2-iodophenyl)-1-methyl-1H-pyrazole-4-carboxamide] are 5%, 12%, 22% and 29 ± 2 nM.
Consider `Cc1cc(C)nc(SCC(=O)Nc2cccc(COc3ccc(NC(=O)c4cnn(C)c4)c(C=O)c3)c2)n1` [Compound 32, N-(4-((3-(2-((4,6-Dimethylpyrimidin-2-yl)thio)acetamido)benzyl)oxy)-2-formylphenyl)-1-methyl-1H-pyrazole-4-carboxamide], for which the “Inhibition of SIRT1 in %@50 μM” value on human SIRT1 was “n.i”. Further, the inhibition at 50 µM at human SIRT5 stood at 6%; on human SIRT3, 7%. Besides, at SIRT2, the IC50 is 184 ± 9 nM.
For `Cc1cc(C)nc(SCC(=O)Nc2cccc(COc3ccc(NC(=O)c4cnn(C)c4)c(B(O)O)c3)c2)n1` [Compound 33, (5-((3-(2-((4,6-Dimethylpyrimidin-2-yl)thio)acetamido)benzyl)oxy)-2-(1-methyl-1H-pyrazole-4-carboxamido)phenyl)boronic acid], the inhibition at 50 µM was found to be 71% at human SIRT1, 14% on human SIRT5 and 24% at human SIRT3. This molecule showed an IC50 on SIRT2 of 202 ± 6 nM.
